In patent US10093666B2, “Deuterated O-sulfated beta lactam hydroxamic acids and deuterated N-sulfated beta lactams” (ARIXA PHARMACEUTICALS, INC., priority 2016, dated 2018):

Assays:
[1] = IV dosing of rats (cassette), plasma concentration vs. time by LC/MS/MS; conditions: for Ratio of b/a: ratio of plasma concentrations b to a (tigemonam), rats, IV
Method: A cohort of three rats was IV dosed using 2 mg/kg cassette IV dosing. […] Samples were withdrawn at various time points indicated below and processed using the following procedure. A 50 μL rat plasma sample was transferred to a well of a 96 well-plate, 20 μL of 0.1 ng/μL of Losartan (internal standard) in acetonitrile was added and 300 μL of acetonitrile/formic acid (100/2). The sample was then vortexed and centrifuged at 300 rpm for 5 minutes. Then 200 μL of the supernatant was mixed with 200 μL of double distilled water and was injected (5 μL) on a phenomex Polar-RP 80A column (75×2.0 mm), which was run at 30° C. at a flow rate of 600 μL/minute with a mobile phase A of acetonitrile/formic acid 100/0.02 and a mobile phase B of water/formic acid 100/0.02.
Each time point above represents a value obtained by averaging the measured plasma concentration of three rats.

[2] = Oral dosing of rats (cassette), plasma concentration vs. time by LC/MS/MS; conditions: for Ratio of b/a: ratio of plasma concentrations b to a (tigemonam), oral
Method: Samples were withdrawn at various time points indicated below and processed using the following procedure. A 50 μL rat plasma sample was transferred to a well of a 96 well-plate, 20 μL of 0.1 ng/μL of Losartan (internal standard) in acetonitrile was added and 300 μL of acetonitrile/formic acid (100/2). The sample was then vortexed and centrifuged at 300 rpm for 5 minutes. Then 200 μL of the supernatant was mixed with 200 μL of double distilled water and was injected (5 μL) on a phenomex Polar-RF 80A column (75×2.0 mm), which was run at 30° C. at a flow rate of 600 μL/minute with a mobile phase A of acetonitrile/formic acid 100/0.02 and a mobile phase B of water/formic acid 100/0.02. The eluate was analyzed by LC/MS/MS (electrospray) to provide the following values of plasma concentration vs. time listed in Table 1, which were then plotted to yield the graph illustrated in FIG. 2.
Each time point above represents a value obtained by averaging the measured plasma concentration of three rats. […] Other compounds may also be tested in the above assay.

## [2H]C([2H])([2H])C1(C([2H])([2H])[2H])[C@H](NC(=O)/C(=N\OCC(=O)O)c2csc(N)n2)C(=O)N1OS(=O)(=O)O [b]
[1]; rat, in vivo, iv
  effect of deuteration of tigemonam on IV bioavailability: no effect
[1]; rat, in vivo, iv, 1 mg/kg
  plasma levels compared with tigemonam: almost identical
[1]; rat, in vivo, iv, 0.167 h
  r = b − a: 235
[1]; rat, in vivo, iv, 0.5 h
  r = b − a: 19
[1]; rat, in vivo, iv, 1 h
  r = b − a: −31
[1]; rat, in vivo, iv, 2 h
  r = b − a: 21
[1]; rat, in vivo, iv, 4 h
  r = b − a: 2
[1]; rat, in vivo, iv, 6 h
  r = b − a: −2
[1]; rat, in vivo, iv, 8 h
  r = b − a: 0
[1]; rat, in vivo, iv, 24 h
  r = b − a: 0
[1]; 0.167 hours
  Ratio of b/a: 1.04
[1]; 0.5 hours
  Ratio of b/a: 1.01
[1]; 1 hours
  Ratio of b/a: .9
[1]; 2 hours
  Ratio of b/a: 1.14
[1]; 4 hours
  Ratio of b/a: 1.06
[1]; 6 hours
  Ratio of b/a: .6
[2]; rat, in vivo, po
  effect of deuteration of tigemonam on oral bioavailability: increase
[2]; rat, in vivo, po, 5 mg/kg
  plasma level greater than the plasma level of tigemonam: at least 20%
[2]; rat, in vivo, po, 0.167 h
  r = b − a: 266
[2]; rat, in vivo, po, 0.5 h
  r = b − a: 694
[2]; rat, in vivo, po, 1 h
  r = b − a: 531
[2]; rat, in vivo, po, 2 h
  r = b − a: 175
[2]; rat, in vivo, po, 4 h
  r = b − a: 55
[2]; rat, in vivo, po, 6 h
  r = b − a: 4
[2]; rat, in vivo, po, 8 h
  r = b − a: 1
[2]; rat, in vivo, po, 24 h
  r = b − a: 0
[2]; rats, 0.167 hours
  Ratio of b/a: 1.19
[2]; rats, 0.5 hours
  Ratio of b/a: 1.24
[2]; rats, 1 hours
  Ratio of b/a: 1.25
[2]; rats, 2 hours
  Ratio of b/a: 1.26
[2]; rats, 4 hours
  Ratio of b/a: 1.48
[2]; rats, 8 hours
  Ratio of b/a: 1.25
[2]; rats, C6 hours
  Ratio of b/a: 1.15
[2]; rats, oral cassette dosing, 5 mg/kg each
  oral absorption compared with tigemonam: increased level
